{"source": "patent US20060111335A1", "about": "“Photoactivated anti-viral and anti-cancer agent” (priority 2002, published 2006)", "key": {"[1]": {"test_system": "SINV genomic RNA", "test": "Infectivity of genome RNA from treated SINV transfected into BHK cells, plaque assay", "type": "cell-based, Sindbis virus", "conditions": "irradiated 60 minutes, >330 nm", "experimental": "Photolysis with SINV. DPPZPHEN/SINV solutions were prepared by adding a 0.3 mL aliquot of a 600 μM DPPZPHEN stock solution in PBS to 3 mL of purified virus at a concentration of 7-8 log10 pfu/mL and bringing the total volume to 4 mL. The DPPZPHEN/SINV solutions were incubated for 2 hours prior to irradiation, following which 3 mL of the solution was irradiated in quartz cuvettes with 355 nm light under a constant stream of nitrogen with stirring Aliquots of 100 μL were withdrawn over time and analyzed for virus infectivity. The inactivation rate constant was calculated using simple hit theory (Hiatt, Bacteriol. Rev., 28:150-163 (1964); Houghtaling et al., Photochem. Photobiol., 71:20-28 (2000)). For the studies measuring infectivity of genome RNA, a 6.9 μL aliquot of 0.623 M DPPZPHEN stock solution in DMSO was added to a 100 μL of TE12 wild type […] solution (10 log10 pfu/mL) to obtain a 40 mM DPPZPHEN/virus solution. Aliquots of 50 μL were placed into 250 μL inserts, incubated for 2 hours, and either kept in the dark or irradiated for 60 minutes with light >330 nm. At the completion of the experiment all the samples were diluted with 6 mL 1×PBS buffer and precipitated for 2 hours at 4° C. with 10% PEG+NaCl (200 mM). […]"}, "[2]": {"test_system": "SINV", "test": "Photoinactivation of SINV, virus infectivity", "type": "cell-based, Sindbis virus", "experimental": "General. The quantity of DNA was determined by the Burton assay (Burton, Biochem. J., 62:315-322 (1956)), and its rhodium content was quantitated using flame atomic absorption spectroscopy (AA). The equilibrium constant for interaction between DPPZPHEN and CT-DNA in the dark was calculated from UV-Vis absorption titration measurements at 380 nm (Wolfe et al., Biochem., 26:6392-6396 (1987); Schemel et al., Biopolymers, 10:465-480 (1971)). Cell viability was determined using the MTT assay (Denizot et al., J. Immunol. Methods, 89:271-277 (1986)). SINV was purified on sucrose gradients as previously described (Owen et al., J. Virol., 70:2757-2763 (1996)). The titer was generally 7-8 log10 pfu/mL at the beginning of each experiment.\nPhotolysis with SINV. DPPZPHEN/SINV solutions were prepared by adding a 0.3 mL aliquot of a 600 μM DPPZPHEN stock solution in PBS to 3 mL of purified virus at a concentration of 7-8 log10 pfu/mL and bringing the total volume to 4 mL. The DPPZPHEN/SINV solutions were incubated for 2 hours prior to irradiation, following which 3 mL of the […] 100 μL were withdrawn over time and analyzed for virus infectivity. The inactivation rate constant was calculated using simple hit theory (Hiatt, Bacteriol. Rev., 28:150-163 (1964); Houghtaling et al., Photochem. Photobiol., 71:20-28 (2000)). For the studies measuring infectivity of genome RNA, a 6.9 μL aliquot of 0.623 M DPPZPHEN stock solution in DMSO was added to a 100 μL of TE12 wild type […] solution (10 log10 pfu/mL) to obtain a 40 mM DPPZPHEN/virus solution. Aliquots of 50 μL were placed into 250 μL inserts, incubated for 2 hours, and either kept in the dark or irradiated for 60 minutes with light >330 nm. At the completion of the experiment all the samples were diluted with 6 mL 1×PBS buffer and precipitated for 2 hours at 4° C. with 10% PEG+NaCl (200 mM). The PEG precipitated virus was centrifuged at 4° C. for 30 minutes at 14,000 rpm, and the resulting pellet re-suspended in 200 μL of 1×PBS buffer and extracted with equal volumes of phenol and chloroform. The virion RNA was precipitated with ethanol, re-suspended in 100 μL of 1×PBS, and electroporated into about 2×10^7 baby hamster kidney (BHK) cells using 0.2-cm-gap cuvettes. The electroporation utilized 200 Ohms, 1.5 kV, and 25 μF. The cells were incubated at 37° C. for 12 hours in MEM supplemented with 10% fetal calf serum and the viral supernatants were harvested and assayed for the presence of infectious virus by plaque assay."}, "[3]": {"test_system": "φX-174 plasmid DNA", "test": "Photonicking of φX-174 plasmid DNA, gel electrophoresis", "type": "biochemical", "experimental": "Photolysis with φX-174 Plasmid DNA. Metal complex solutions (with or without quenchers) were saturated with oxygen or argon prior to irradiation. The solutions were further degassed after being mixed with the plasmid. The final solution concentrations were: DPPZPHEN ([…]), φX-174 plasmid DNA (205 μM in base pairs), superoxide dismutase (25 μg/mL), 2-propanol (0.5 M), mannitol (6.25 mM), histidine (8 mM).\nExperiments were conducted as described in Example X to evaluate the amount photonicking that occurred in the dark and upon exposure to light for 37TMBP, 56TMBP, OCTBP, BISNMe2, TMOBP, TIOBP, TPBP, BISTAP and BISDPPZ."}}}
{"smiles": "[Cl-].[Cl][Rh+]12([Cl])([N]3C=CC=c4ccc5c(c43)[N]1C=CC=5)[N]1C=CC=c3c1c1c(c4nc5ccccc5nc34)=CC=C[N]12", "note": "[DPPZPHEN, cis-dichloro(dipyrido[3,2a-2′3′c]phenazine)(1,10-phenantroline) rhodium(III) chloride]", "values": [{"measurement": "plaque formation in cells that received RNA from virus irradiated with compound", "setting": "[1]", "value": "no plaque formation"}, {"measurement": "inactivation rate constant k (simple hit theory)", "setting": "[2]; 45 μM, 355 nm irradiation", "value": "2.4×10^−19 photons^−1"}, {"measurement": "reduction in viral titer", "setting": "[2]; 45 μM, 355 nm irradiation", "value": 6, "unit": "log"}, {"measurement": "effect of the metal complex on the virus in the dark", "setting": "[2]; dark", "value": "unaffected"}, {"measurement": "rate of photoinactivation under oxygen versus nitrogen", "setting": "[2]; oxygen or nitrogen", "value": "the same under either oxygen or nitrogen"}, {"measurement": "frank nicks / nicking of φX-174 supercoiled plasmid DNA upon irradiation", "setting": "[3]; 311 nm irradiation, Example VIII", "value": "light dose dependent"}, {"measurement": "photonicking of φX-174 plasmid DNA", "setting": "[3]; Example IX, dark and upon exposure to light", "value": "found to photonick"}, {"measurement": "protection of the DNA from photonicking by ROS quenchers or argon", "setting": "[3]; oxygen-saturated solutions with quenchers, and under argon, relative to buffered control", "value": "no significant level of protection"}]}
